Measurements as given in patent US20150159167A1, “Plants Tolerant to HPPD Inhibitor Herbicides” (Bayer CropScience AG, priority 2009, published 2015).

How the values were obtained:
[1] = target: T1, Arabidopsis thaliana HPPD "SEQ ID No. 10" (Arabidopsis thaliana, UniProt P93836); assay: HPLC assay of HPPD activity, in vitro kinetic properties; format: biochemical
T1 construct: Preparation of Synechococcus sp; Ala + 6xHis (N); made in house; host or cells: E. coli K-12 BL21 (pQE30-AtHPPD)
T1 sequence (P93836 with tags, fused parts or gaps): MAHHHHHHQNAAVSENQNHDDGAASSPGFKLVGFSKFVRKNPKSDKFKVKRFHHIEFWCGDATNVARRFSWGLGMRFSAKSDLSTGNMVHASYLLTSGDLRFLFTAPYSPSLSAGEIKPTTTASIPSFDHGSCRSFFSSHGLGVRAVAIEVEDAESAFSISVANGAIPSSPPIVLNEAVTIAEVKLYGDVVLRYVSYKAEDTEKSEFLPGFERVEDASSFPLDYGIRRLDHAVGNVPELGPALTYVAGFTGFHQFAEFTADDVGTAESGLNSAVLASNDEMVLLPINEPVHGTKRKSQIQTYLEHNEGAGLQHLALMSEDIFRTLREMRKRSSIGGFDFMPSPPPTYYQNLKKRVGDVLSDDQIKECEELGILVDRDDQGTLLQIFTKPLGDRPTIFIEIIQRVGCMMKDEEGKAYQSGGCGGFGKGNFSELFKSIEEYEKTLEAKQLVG
Procedure: Km, Vmax, and kcat values for different HPPD enzyme preparations and Ki, K1=Kon, and K−1=Koff for different HPPD inhibitors were determined using a HPLC assay for measurements of HPPD activity. […] All assays were started by the addition of HPPD enzyme to the assay mixture and stopped at a series of times between 0 and 240 s by addition of 200 μl of the reaction mixture to reaction assay tubes containing 20 μl 10% perchloric acid. Precipitated protein was pelleted by a 5 minute centrifugation at 10,000 g.
For Km and Vmax value determinations the initial rates of the HPPD reaction at different substrate concentrations were determined from plots of HGA formed versus time and fitted to the Michaelis-Menten equation for unireactant enzymes using the ID Business Solutions Ltd. (idbs.com) XLfit software suite.
In below given table 1, “Km” (Michaelis-Menten constant) means the kinetic parameter that is used to characterise an enzyme, and it is defined as the concentration of substrate that permits half maximal rate of the reaction. Km is further defined as the substrate concentration at which the reaction rate reaches half of its maximum value (Vmax/2) where Vmax has the meaning of being the maximum velocity of the reaction.
Kon=K1 equals the association rate constant of the […] binding and Koff=K−1 equals the rate constant of the enzyme-inhibitor complex dissociation. Ki defines the inhibition constant.

[2] = test system: tobacco calli containing HPPD SEQ ID No. 7 (Synechococcus sp.); assay: Rooting of calli on media with tembotrione; format: cell-based, Nicotiana tabacum; settings: 6 to 12 weeks
Procedure: The leaf disks were co-cultivated for 2 days with Agrobacterium tumefaciens cells containing either the binary vector FMP38ebv or AtHPPDbv. Then the leaf disks were transferred to a media allowing the regeneration of shoots for 6 weeks on MS (Musharige and Skoog, (1962), Physiol Plant 15(3): 473-497) media supplemented with BAP ([…]; Benzylaminopurine), carbenicillin ([…]), cefotaxine ([…]), kanamycin (75 mg/mL) and tembotrione (10^−6 M)
Regenerated calli were transferred on media to induce the development of roots for 6 to 12 weeks: MS (1/2), supplemented with carbenicillin (250 mg/mL), cefotaxine (250 mg/mL), kanamycin (75 mg/mL), and tembotrione (10^−6 M).
Regenerated shoot calli from a cell transformed with a nucleic acid sequence encoding an HPPD comprising SEQ ID No. 11 (Arabidopsis thaliana) or SEQ ID No. 7 (Synechococcus sp.) were transferred to a media inducing root growth which media was further supplemented with the HPPD inhibitor tembotrione for 6 to 12 weeks.

[3] = test system: T0 tobacco plants containing FMP38t; assay: Response of T0 tobacco plants expressing the FMP38 HPPD to tembotrione; format: in vivo, Nicotiana tabacum; settings: 100 g AI/ha, two weeks after the treatment
From the text: As an example, rooted plants containing the T-DNA PromCaMV35S-OTP-HIS6-FMP38t-TerCaMV35S, will be transferred to the greenhouse under standard growth conditions. Following a period of acclimation of two weeks, the T0 plants will be treated with a mixture containing 100 g tembotrione/ha prepared from a WP20 (wettable powder 20%) formulation supplemented with ammonium sulfate and methyl ester raps oil. Two weeks after the treatment, the symptoms due to the application of the herbicides will be evaluated. The plants are classified in four categories. The treated plants evaluated as “0” are looking like the untreated tobacco plants. The plants evaluated as “1” display temporarily light bleaching phenotype due to the application of the herbicides. The plants evaluated as “2” display permanent light to strong bleaching symptoms. Finally the plants evaluated as “3” are looking like wild type tobacco plants submitted to the same treatment.

[4] = test system: rice shoots transformed with FMP38e; assay: Bleaching of rice shoots on MS/2 with tembotrione; format: in vivo; settings: evaluation 2 weeks later
Procedure: Rice transformation was achieved using methods well known in the art. Briefly, the Agrobacterium tumefaciens mediated transformation of rice was performed using immature embryos, from the restorer line 6G4317. Briefly, panicles from donor plants were harvested 8-12 days after pollination. The lemma of the immature seed was removed. Seeds were thereafter sterilized using a NaOCl based solution and Tween. The seeds were preinduced with […]. Agrobacterium tumefaciens cells are then co-cultivated with the preinduced seeds in presence of acetosyringone for 4 days at 24° C. in the dark. Thereafter, coleoptile from embryos are removed and washed, then put on a media supplemented with phosphinothricin for 3 weeks at 28° C. under a photoperiod rhythm of 16 hours. Then the growing calli were cut off from the embryos, and transferred to fresh media containing triacillin, phosphinothricin, L-proline and copper (II) sulfate.
For each callusline and per Tembotrione concentration, 3 shoots, and randomly isolated from different callus pieces, were transferred to MS/2 with Tembotrione. As a general rule, transfer of the shoots from regeneration medium to MS/2 occurred 9 weeks after calli had been put on regeneration medium.
Cultures were incubated at 26.5° C. (16 hrs. photoperiod) and evaluation of symptoms occurred 2 weeks later.
New developing leaves of the shoots transferred have been scored on the basis of bleaching and categorized in 3 groups:
a) no bleaching b) intermediate bleaching c) complete bleaching
Within the category ‘intermediate bleaching’ a distinction has been made between shoots having new leaves showing only very little bleaching symptoms and thus tending to green leaves, and shoots with new leaves almost completely bleached.

## CS(=O)(=O)c1ccc(C(=O)C2C(=O)CCCC2=O)c(Cl)c1COCC(F)(F)F [Tembotrione, 2-[2-chloro-4-(methylsulfonyl)-3-[(2,2,2,-tri-fluoroethoxy)methyl]benzoyl]-1,3-cyclo-hexanedione]
[1]; read-out: k1 (Kon)
  kon: 230000 M⁻¹ s⁻¹
[1]; read-out: k−1 (Koff)
  koff: 0.0035 s⁻¹
[2]
  % Elongation & rooting on 10^−6 M tembotrione: 80%
[3]
  number of plants in category 0 (looking like the untreated tobacco plants): 1
  number of plants in category 1 (temporarily light bleaching phenotype): 1
  number of plants in category 3 (looking like wild type tobacco plants submitted to the same treatment): 14
[4]; 1 μM
  No of shoots completely bleached: 0
  No of shoots with intermediate bleaching: 4
  No of shoots without bleaching: 38
[4]; 5 μM
  No of shoots with intermediate bleaching: 35
  No of shoots without bleaching: 3
